Values joined by “and” are separate entries in the source; they are usually repeats but may differ in a detail not shown here. Equal entries are not always repeated. Where two headings read alike, the source gives them in different places.

The nature of data set [1]: Differential pulse voltammetry, quinone reduction potentials. Type of data set: physicochemical. The note with it: DMSO, 0.1 M [N(nBu)4][PF6], 0.1 mM analyte, vs. SCE; for E 1/2 a (V) DPV: first reduction, semiquinone radical (NQ˙–); for E 1/2 b (V) DPV: second reduction, quinone dianion (NQ2–). The protocol: A series of electrochemical analyses, including cyclic voltammetry (CV) and differential pulse voltammetry (DPV), were carried out with [NnBu4][PF6] in anhydrous dimethyl sulfoxide (DMSO) in order to evaluate electronic properties of compounds 1–3 and 4[H][Cl]. […] These electrochemical features were attributed to the reduction of the quinone moiety to first produce the semiquinone radical (NQ^–) and then produce the quinone dianion (NQ^2–) forms of compounds 1–3 and 4[H][Cl].[70],[71] The quinone reduction potential in 4[H][Cl] occurs at –0.38 V, the lowest of all the molecules studied, indicative of a positively charged imidazolium ring. The quinone couple at –0.42 V observed for compound 1 is ascribed to the presence of bis(NHC). The same wave in compound 3 appears at a more negative potential (–0.47 V), presumably due to greater trans effects excreted by quinone annulated NHC ligand than the metal-bound chloride. This analysis agrees well with the differences in the observed δ^13C (Au–Ccarbene) resonances for compounds 1 and 3. […]
mM) as referenced to SCE (internal standard Fc0/+, adjusted to 0.435 V vs. SCE).

For data set [2], the system named is A549 lung cancer cells. Kind of data set: Cell proliferation (MTT assay) in A549 lung cancer cells. The note with it: for Fold less potent than 1 in cell proliferation: A549. Type of data set: cell-based, human. The protocol: To gauge the ability of each complex to inhibit cancer cell growth, A549 lung cancer cells were treated with 1–3, 4[H][Cl], doxorubicin, and auranofin in a dose responsive manner. Cellular vitality (i.e., mitochondrial reductase activity) was then quantified colorimetrically post treatment using 3-(4,5-dimethylthiazol-2-yl)-2,5-diphenyltetrazolium bromide (MTT assay) (Table 2, Fig. 5).
(§1) Biological preparations and assays
(§2) Experimental compound preparation. Stock solutions of complexes 1–3, 4[H][Cl], auranofin (Tocris Bioscience 4600), and doxorubicin (Tocris Bioscience 2252) were dissolved in DMSO (2.5–10 mM, depending on the compound and its solubility), aliquoted, and stored at -80 °C prior to use.
(§3) Biological Materials and Cell Lines. Cell lines were obtained from the ATCC (A549 and PC-3) and Prof.
Zahid Siddik at M.D. Anderson Cancer Center (A2780 and A2780CP). Cell culture plastic ware (i.e. T-75 flasks, treated 6-well plates, treated 96-well plates, and cell scrapers) were obtained from Fisher Scientific. Cell were cultured in RPMI 1640 culture medium (+2mM glutamine, +25mM HEPES, Corning 10041cv) supplemented with 10% heat-inactivated fetal bovine serum (RMBIO FBS-BBT) and 1X penicillin-streptomycin (Sigma p4333). Unless otherwise noted, incubators were set to 37°C and 5% CO2.
Trypsin (HyClone SH30236.01) and 1X Phosphate Buffered Saline (HyClone SH30258.02, diluted in autoclaved deionized water) were utilized for general cell line maintenance and harvesting. Trace Metal […]
Cell Proliferation Studies. Cells were harvested and seeded into 96-well culture plates (Costar 07-200-90) in 100µL of culture media. They were allowed to incubate overnight at 37 °C in the presence of 5% CO2. […]
and PC-3 at 2000 cells/well. […]
were made. To each well of a 96 well plate was added 100 µL of the appropriate solution. After a total of three days, a […] aliquot of 3 mg/mL tetrazolium dye, 3-(4,5-dimethylthiazol-2-yl)-2,5-diphenyltetrazolium bromide (Alfa Aesar L11939) was added to each well, followed by a 4 hr incubation period at 37 °C. The medium was then removed, the resulting formazan was dissolved in […] DMSO and the respective absorbances were measured at 560–650 nm using a microplate reader (Molecular Devices, Sunnyvale, CA). Absorbance values were corrected for background and then normalized to wells containing untreated cells to allow for plate-to-plate comparisons. The data are shown as mean inhibition of proliferation or growth as a percentage of control cells and are from 2–3 replicate experiments. Resulting dose response curves were subjected to linear regression analysis (Origin by OriginLab, Inc.) for determination of IC50 values.
(Tetrazolium assays rely on reduction of a dye to a coloured formazan, in cell work by metabolically active cells.)

The next data set relates to A2780 ovarian. As to the kind of experiment: Cell proliferation (MTT assay) in A2780 ovarian cells. Type of data set: cell-based, human. The settings on record: Homo sapiens, A2780; wt-p53, platinum sensitive; Table 3. The protocol:
(§4) Further anti-proliferation studies were carried out with complex 1 and its naphthoquinone component 4[H][Cl] using the following cell lines: A2780 ovarian (a wt-p53 cell line sensitive to platinum treatment), 2780CP ovarian (isogenic to A2780 but expressing multi-drug resistance (MDR)), and PC-3 prostate (p53 null) (Table 3).
as §1, §2, §3
(§5) Zahid Siddik at M.D. Anderson Cancer Center (A2780 and A2780CP). Cell culture plastic ware (i.e. T-75 flasks, treated 6-well plates, treated 96-well plates, and cell scrapers) were obtained from Fisher Scientific. […]
(§6) were made. […] The medium was then removed, the resulting formazan was dissolved in […] DMSO and the respective absorbances were measured at 560–650 nm using a microplate reader (Molecular Devices, Sunnyvale, CA). Absorbance values were corrected for background and then normalized to wells containing untreated cells to allow for plate-to-plate comparisons. […]

In another data set the test system is 2780CP ovarian. As to the kind of experiment: Cell proliferation (MTT assay) in 2780CP ovarian cells. The note with it: Homo sapiens; isogenic to A2780, multi-drug resistance; Table 3. Format: cell-based, human. How it is done:
as §4, §1, §2, §3, §5, §6

For the next data set, the system named is PC-3 prostate. Kind of data set: Cell proliferation (MTT assay) in PC-3 prostate cells. Type of data set: cell-based, human. The note with it: Homo sapiens, Prostate cell; p53 null; Table 3. How it is done: as §4, §1, §2, §3, §5, §6
A further data set has as its system A549 cells. Kind of data set: Detection of intracellular ROS by flow cytometry (CM-H2DCFDA). Type of data set: cell-based, human. The note with it: for Increase in intracellular ROS (fluorescence cell population shift): A549, 2.5 μM, 6 h incubation, CM-H2DCFDA; for Intracellular ROS increase, in words: A549, 0.625–2.5 μM, 6 h. On the technique in general: Flow cytometry measures light scatter and fluorescence of single cells or particles in a stream.

The test system of data set [3] is DNA duplex (5'CCGCAGCCA3'/5'TGGCTGCGG3'). As to the kind of experiment: Thermal denaturation of a DNA duplex. Format: binding. The note with it: 1 molar equivalent, 5 μM complex and duplex.
Data set [4] deals with thioredoxin reductase (TrxR). The settings on record: 6 h exposure; for Inhibition of TrxR at higher concentrations: A549, 1.25–5.0 μM, lipoate reduction; for Inhibition of TrxR at low concentrations: A549, 0.1–0.6 μM, lipoate reduction over 180 min.
Method: Briefly, plateau phase A549 cells were exposed to variable doses of complexes 1, 3, 4[H][Cl], a 2 : 1 molar ratio of 4[H][Cl] and 5 (cocktail), auranofin, and doxorubicin for 6 h. Post treatment, the live cells were monitored colorimetrically over 180 min for their ability to reduce lipoate (Fig. 8a).
Data set [5] deals with A549 lung cancer cells. As to the kind of experiment: ICP-MS detection of intracellular Au (cellular uptake).
Data set [6] in a line: Serum protein binding: free Au in fetal bovine serum by ICP-MS. The note with it: 25 μM in FBS, 37 °C, methanolic extracts, up to 100 h. Format: in vitro ADME. How it is done:
To assess potential drug protein interactions, samples of fetal bovine serum (FBS) were treated with 25 μM 1, 3, and auranofin prior to incubating at 37 °C. Aliquots were taken and the free Au (non-protein bound, methanolic extracts) content was analyzed by ICP-MS (Fig. 6b).
Serum Protein Binding Studies.
aliquots were stored at -80°C.
in an Edvotek microcentrifuge. […] Samples
Detection of ROS by Flow Cytometry.
cells were treated with vehicle only.
g) at 5 °C. […] The pellet was
Control samples of unstained cells,
overnight. […] Post incubation, the media was
After incubation, the dye-
Cells were then imaged fluorescently
Lipoate Inhibition Assays.
well culture plates. […] The next day, appropriate
were added to each well. […] Afterwards, the liquid was then

The mark [7] stands for this setting: A549, ratio of IC50 to that of 1 (Table 2).
The mark [8] stands for this setting: A549 lung cancer cells, MTT, 72 h, read-out: IC50.

For the compound `Cc1cc(C)c(-n2c[n+](-c3c(C)cc(C)cc3C)c3c2C(=O)c2ccccc2C3=O)c(C)c1` [4[H][Cl], 1,3-dimesitylnaphthoquinimidazolium], the “E 1/2 a (V) DPV” value in [1] is on record as “–0.38 V”. For the same compound, the “E 1/2 b (V) DPV” value in data set [1] is “–1.15 V”. For the same compound, the “Fold less potent than 1 in cell proliferation” value in the data set on A549 lung cancer cells [2] is about 14 fold. Besides, the “Fold difference relative to 1” value in the data set with A549 lung cancer cells [2] (setting [7]) came to 13.6. The IC50 is 990 ± 120 nM with A549 lung cancer cells [2] (Homo sapiens, A549, 72 h, A549 lung cancer cells, MTT, 72 h, read-out: IC50); 994 ± 120 nM in the data set with A549 lung cancer cells [2] (Homo sapiens, A549, Table 3, error = standard error from the mean, read-out: IC50 A549 lung); 159 ± 58 nM in the data set with A2780 ovarian; 626 ± 117 nM with 2780CP ovarian; 136 ± 20 nM with PC-3 prostate. Besides, the “Increase in intracellular ROS (fluorescence cell population shift)” value in the data set on A549 cells is reported as about 11 fold. In addition, the “Thermal stabilization of DNA” value in data set [3] is reported as “no thermal stabilization”. The “Inhibition of TrxR at higher concentrations” value in data set [4] is reported as “became evident”.

For `Cc1cc(C)c(-n2c3c([n+](-c4c(C)cc(C)cc4C)[c]2[Au-][Cl])C(=O)c2ccccc2C3=O)c(C)c1` [Complex 3, 1,3-dimesityl-4,5-naphthoquino-imidazol-2-ylidene)-gold(I) chloride], in [1], the “E 1/2 a (V) DPV” value was “–0.47 V” and the “E 1/2 b (V) DPV” value is given as “–1.31 V”. For the same compound, the “Fold less potent than 1 in cell proliferation” value with A549 lung cancer cells [2] is > 150 fold and 165 fold. Moreover, in the data set on A549 lung cancer cells [2] (setting [7]), the “Fold difference relative to 1” value is listed as 165. In the data set with A549 lung cancer cells [2] (setting [8]), the IC50 came out at 12100 nM. In addition, the “Intracellular Au levels (uptake), in words” value in the data set with A549 lung cancer cells [5] is listed as “no intracellular Au was detected”. In addition, the “Intracellular ROS increase, in words” value with A549 cells is given as “minimal or no ROS increase”. Moreover, the “Inhibition of TrxR at higher concentrations” value in data set [4] was “remained inactive”.

Take `CC(=O)OC[C@H]1O[C@@H]([S-])[C@H](OC(C)=O)[C@@H](OC(C)=O)[C@@H]1OC(C)=O.CCP(CC)CC.[Au+]` [Auranofin, reference compound]: the “Fold less potent than 1 in cell proliferation” value with A549 lung cancer cells [2] is 23 fold. Further, in the data set with A549 lung cancer cells [2] (setting [7]), the “Fold difference relative to 1” value is 22.9. Moreover, in the data set with A549 lung cancer cells [2] (setting [8]), the 50% inhibitory concentration (IC50) worked out at 1670 nM. Further, the “Increase in intracellular Au concentration as compared to complex 1” value with A549 lung cancer cells [5] (A549, regardless of dose) is on record as 2–5 fold. For the same compound, the “Free Au (non-protein bound) content over time” value in data set [6] is given as “decreased in a time dependent manner”. The “Intracellular ROS increase, in words” value in the data set on A549 cells is “minimal or no ROS increase”. Besides, the “Inhibition of TrxR at low concentrations” value in data set [4] is listed as “inhibition of TrxR was apparent”.

For the compound `Cc1cc(C)c(-n2c3c(n(-c4c(C)cc(C)cc4C)[c]2=[Au]([Cl])=[c]2n(-c4c(C)cc(C)cc4C)c4c(n2-c2c(C)cc(C)cc2C)C(=O)c2ccccc2C4=O)C(=O)c2ccccc2C3=O)c(C)c1` [Complex 2, [bis(1,3-dimesityl-4,5-naphthoquino-imidazol-2-ylidene)-gold(I)] chloride], in data set [1], the “E 1/2 a (V) DPV” value is “–0.46 V” and the “E 1/2 b (V) DPV” value is on record as “–1.31 V”. Further, the “Fold difference relative to 1” value with A549 lung cancer cells [2] (setting [7]) is recorded as 1. Moreover, the half-inhibitory concentration (IC50) in the data set with A549 lung cancer cells [2] (setting [8]) worked out at 75 nM.

On to `COc1cccc2c1C(=O)c1c(O)c3c(c(O)c1C2=O)C[C@@](O)(C(=O)CO)C[C@@H]3O[C@H]1C[C@H](N)[C@H](O)[C@H](C)O1` [Doxorubicin, reference compound], for which the “Fold difference relative to 1” value in the data set on A549 lung cancer cells [2] came out at 1.41. Also, the “Intracellular ROS increase, in words” value in the data set with A549 cells is “minimal or no ROS increase”. Also, in data set [3], the “Thermal stabilization of DNA” value is on record as “Significant DNA stabilization”. For the same compound, in data set [4], the “Inhibition of TrxR at low concentrations” value was “little to no inhibition” and the “Inhibition of TrxR at higher concentrations” value was “remained inactive”.

On to `Cc1cc(C)c(-[n+]2ccn(Cc3ccccc3)[c]2[Au-][c]2n(Cc3ccccc3)cc[n+]2-c2c(C)cc(C)cc2C)c(C)c1.[Cl-]` [Complex 5, bis(1-benzyl-3-mesityl-imidazol-2-ylidene)-gold(I) chloride, reference compound], for which, in the data set on A549 lung cancer cells [2], the “Fold less potent than 1 in cell proliferation” value was about 10 fold. For the same compound, the “Fold difference relative to 1” value with A549 lung cancer cells [2] (setting [7]) was determined as 9.72. In addition, the IC50 with A549 lung cancer cells [2] (setting [8]) is 710 nM. In addition, in the data set with A549 lung cancer cells [5] (A549, ICP-MS), the “Intracellular Au levels (uptake), in words” value was “identical”. Also, the “Increase in intracellular ROS (fluorescence cell population shift)” value in the data set on A549 cells is recorded as about 11 fold. Further, in data set [4], the “Inhibition of TrxR at higher concentrations” value is “became evident”.

The IC50 is the concentration at which inhibition is half-maximal.

For the origin of these results see publication PMC5859730, “Dual targeting of the cancer antioxidant network with 1,4-naphthoquinone fused Gold(I) N-heterocyclic carbene complexes” (Chemical Science, 2017).
